Laboratory results reported in patent publication US20230233569A1 (Revolution Medicines, Inc., priority 2020, published 2023).
Read-outs that look alike come from different tables or passages of the source.

Columns and labels:
Experiment in all cases: Ras-Raf disruption / FRET / MOA assay (BRAF RBD)
Format in all cases: biochemical
KRAS G12D = KRAS G12D (Homo sapiens, UniProt P01116+P62937, G12D); conditions: with Cyclophilin A
Outline: (§1)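 Compound-induced Ras–Cyclophilin A ternary complex disrupting BRAF RBD binding, read as IC50 from reduced TR-FRET ratio relative to DMSO. Final: Ras-GMPPNP 12.5 nM, BRAF RBD 50 nM, Cyclophilin A 25 μM, top compound 30 μM (3-fold, 10 points); 3 h at 25 °C, then 1.5 h with detection antibodies.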

KRAS G12S = KRAS G12S (Homo sapiens, UniProt P01116+P62937, G12S); conditions: with Cyclophilin A
Outline: as §1

KRAS G12V = KRAS G12V (Homo sapiens, UniProt P01116+P62937, G12V); conditions: with Cyclophilin A
Outline: as §1

KRAS G13C = KRAS G13C (Homo sapiens, UniProt P01116+P62937, G13C); conditions: with Cyclophilin A
Outline: as §1

KRAS G13D = KRAS G13D (Homo sapiens, UniProt P01116+P62937, G13D); conditions: with Cyclophilin A
Outline: as §1

KRAS WT = KRAS WT (Homo sapiens, UniProt P01116+P62937); conditions: with Cyclophilin A
Outline: as §1

NRAS G12C = NRAS G12C (Homo sapiens, UniProt P01111+P62937, G12C)
Outline: as §1

KRAS G12C = KRAS G12C (Homo sapiens, UniProt P01116+P62937, G12C); conditions: with Cyclophilin A
Outline: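 TR-FRET read-out after 1.5 h with anti-His Eu-W1024 (10 nM) and anti-GST APC (50 nM), following 3 h at 25 °C of compound (top 30 μM, 3-fold, 10 points) with 25 μM Cyclophilin A, 12.5 nM GMPPNP-loaded K-Ras G12C and 50 nM BRAF RBD; IC50 reported.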

[1] = Ras-Raf disruption, read-out: KRAS G12D FRET data IC50
[2] = Ras-Raf disruption, read-out: KRAS G12S FRET data IC50
[3] = Ras-Raf disruption, read-out: KRAS G12V FRET data IC50
[4] = Ras-Raf disruption, read-out: KRAS G13C FRET data IC50
[5] = Ras-Raf disruption, read-out: KRAS G13D FRET data IC50
[6] = Ras-Raf disruption, read-out: KRAS WT FRET data IC50
[7] = NRAS G12C, read-out: NRAS G12C FRET data IC50
[8] = Ras-Raf disruption, read-out: KRAS G12C FRET data IC50
[9] = KRAS G12D FRET data IC50, Ras-Raf disruption
[10] = KRAS G12S FRET data IC50, Ras-Raf disruption
[11] = KRAS G12V FRET data IC50, Ras-Raf disruption
[12] = KRAS G13C FRET data IC50, Ras-Raf disruption
[13] = KRAS G13D FRET data IC50, Ras-Raf disruption
[14] = KRAS WT FRET data IC50, Ras-Raf disruption
[15] = NRAS G12C FRET data IC50, NRAS G12C
[16] = KRAS G12C FRET data IC50, Ras-Raf disruption

Chain of KRAS G12S (P01116 1-169 isoform P01116-2 G12S limits assumed): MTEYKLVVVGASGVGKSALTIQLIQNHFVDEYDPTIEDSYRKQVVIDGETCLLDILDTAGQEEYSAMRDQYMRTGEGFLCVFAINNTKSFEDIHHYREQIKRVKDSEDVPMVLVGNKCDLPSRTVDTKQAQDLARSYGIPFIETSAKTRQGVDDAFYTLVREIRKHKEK
Chain of KRAS G12S (P62937 whole entry): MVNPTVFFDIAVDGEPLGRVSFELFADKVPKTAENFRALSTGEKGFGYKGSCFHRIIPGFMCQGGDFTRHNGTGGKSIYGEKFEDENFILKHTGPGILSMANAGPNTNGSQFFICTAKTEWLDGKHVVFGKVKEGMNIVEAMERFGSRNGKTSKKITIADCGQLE
Chain of KRAS G12D (P01116 1-169 isoform P01116-2 G12D limits assumed): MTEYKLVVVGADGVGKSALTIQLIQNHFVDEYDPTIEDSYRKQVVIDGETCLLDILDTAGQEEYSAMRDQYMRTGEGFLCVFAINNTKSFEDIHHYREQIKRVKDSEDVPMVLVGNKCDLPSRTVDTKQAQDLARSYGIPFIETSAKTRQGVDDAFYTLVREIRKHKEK
Chain of KRAS G12D (P62937 whole entry): as the sequence (P62937 whole entry) above
Chain of KRAS WT (P01116 1-169 isoform P01116-2 limits assumed): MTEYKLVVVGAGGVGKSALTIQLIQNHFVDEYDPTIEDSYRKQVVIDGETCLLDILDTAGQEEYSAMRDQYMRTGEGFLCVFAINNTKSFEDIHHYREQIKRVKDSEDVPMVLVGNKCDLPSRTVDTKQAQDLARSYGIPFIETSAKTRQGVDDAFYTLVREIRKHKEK
Chain of KRAS WT (P62937 whole entry): as the sequence (P62937 whole entry) above
Chain of KRAS G12V (P01116 1-169 isoform P01116-2 G12V limits assumed): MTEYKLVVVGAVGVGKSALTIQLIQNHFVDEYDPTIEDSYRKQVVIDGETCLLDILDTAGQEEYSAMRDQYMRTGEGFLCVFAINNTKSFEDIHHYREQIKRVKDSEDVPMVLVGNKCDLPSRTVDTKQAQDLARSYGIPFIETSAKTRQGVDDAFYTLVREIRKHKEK
Chain of KRAS G12V (P62937 whole entry): as the sequence (P62937 whole entry) above
Chain of KRAS G12C (P01116 1-169 isoform P01116-2 G12C limits assumed): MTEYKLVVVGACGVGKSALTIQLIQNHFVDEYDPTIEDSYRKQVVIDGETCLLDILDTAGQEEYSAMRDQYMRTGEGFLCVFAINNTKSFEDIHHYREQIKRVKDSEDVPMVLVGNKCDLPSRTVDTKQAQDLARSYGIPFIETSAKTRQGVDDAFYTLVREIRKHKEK
Chain of KRAS G12C (P62937 whole entry): as the sequence (P62937 whole entry) above
Chain of KRAS G13D (P01116 1-169 isoform P01116-2 G13D limits assumed): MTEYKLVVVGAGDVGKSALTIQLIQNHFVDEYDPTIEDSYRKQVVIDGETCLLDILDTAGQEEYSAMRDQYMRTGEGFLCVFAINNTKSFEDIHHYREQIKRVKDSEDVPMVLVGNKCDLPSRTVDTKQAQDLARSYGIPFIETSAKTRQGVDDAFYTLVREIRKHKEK
Chain of KRAS G13D (P62937 whole entry): as the sequence (P62937 whole entry) above
Chain of KRAS G13C (P01116 1-169 isoform P01116-2 G13C limits assumed): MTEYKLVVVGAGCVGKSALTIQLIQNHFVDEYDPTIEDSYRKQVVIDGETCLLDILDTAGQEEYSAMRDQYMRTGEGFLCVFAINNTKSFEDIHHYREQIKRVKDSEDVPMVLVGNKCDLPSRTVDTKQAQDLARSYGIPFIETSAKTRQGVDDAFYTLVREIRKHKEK
Chain of KRAS G13C (P62937 whole entry): as the sequence (P62937 whole entry) above
Chain of NRAS G12C (P01111 whole entry G12C): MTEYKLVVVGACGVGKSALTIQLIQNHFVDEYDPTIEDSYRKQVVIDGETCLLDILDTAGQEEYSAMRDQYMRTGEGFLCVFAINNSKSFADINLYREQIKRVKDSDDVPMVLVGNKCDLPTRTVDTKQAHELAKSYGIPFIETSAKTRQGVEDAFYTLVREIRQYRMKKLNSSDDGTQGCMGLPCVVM
Chain of NRAS G12C (P62937 whole entry): as the sequence (P62937 whole entry) above

Structure (SMILES)	IC50 (KRAS G12D; [1])	IC50 (KRAS G12S; [2])	IC50 (KRAS G12V; [3])	IC50 (KRAS G13C; [4])	IC50 (KRAS G13D; [5])	IC50 (KRAS WT; [6])	IC50 (NRAS G12C; [7])	IC50 (KRAS G12C; [8])	IC50 (KRAS G12D; [9])	IC50 (KRAS G12S; [10])	IC50 (KRAS G12V; [11])	IC50 (KRAS G13C; [12])	IC50 (KRAS G13D; [13])	IC50 (KRAS WT; [14])	IC50 (NRAS G12C; [15])	IC50 (KRAS G12C; [16])
CCn1c(-c2cccnc2[C@H](C)OC)c2c3cc(ccc31)-c1cc(O)cc(c1)C[C@H](NC(=O)[C@H](C(C)C)N1CC[C@]3(CCN(C(=O)[C@H]4CN4)C3)C1=O)C(=O)N1CCC[C@H](N1)C(=O)OCC(C)(C)C2 [Example 146]	10 to 100 nM	10 to 100 nM	10 to 100 nM	10 to 100 nM	100 to 1000 nM	10 to 100 nM	< 10 nM	< 10 nM								
CCn1c(-c2cccnc2[C@H](C)OC)c2c3cc(ccc31)-c1cc(O)cc(c1)C[C@H](NC(=O)[C@H](C(C)C)N1CC[C@@]3(CCN(C(=O)[C@H]4CN4)C3)C1=O)C(=O)N1CCC[C@H](N1)C(=O)OCC(C)(C)C2 [Example 149]	100 to 1000 nM	10 to 100 nM	10 to 100 nM	10 to 100 nM	10 to 100 nM	10 to 100 nM	< 10 nM	< 10 nM								
CCn1c(-c2cccnc2[C@H](C)OC)c2c3cc(ccc31)-c1cc(O)cc(c1)C[C@H](NC(=O)[C@H](C(C)C)N(C)C(=O)[C@H]1CCN1C(=O)[C@@H]1CN1)C(=O)N1CCC[C@H](N1)C(=O)OCC(C)(C)C2 [Example 157]									100 to 1000 nM	10 to 100 nM	10 to 100 nM	10 to 100 nM	10 to 100 nM	10 to 100 nM	10 to 100 nM	10 to 100 nM
CCn1c(-c2cccnc2[C@H](C)OC)c2c3cc(ccc31)-c1cc(O)cc(c1)C[C@H](NC(=O)[C@H](C(C)C)N(C)C(=O)[C@H]1CCN1C(=O)[C@H]1CN1)C(=O)N1CCC[C@H](N1)C(=O)OCC(C)(C)C2 [Example 158]									100 to 1000 nM	10 to 100 nM	10 to 100 nM	10 to 100 nM	10 to 100 nM	10 to 100 nM	10 to 100 nM	10 to 100 nM
CCn1c(-c2cccnc2[C@H](C)OC)c2c3cc(ccc31)-c1csc(n1)C[C@H](NC(=O)[C@H](C(C)C)N(C)C(=O)N1CCN(C(=O)[C@@H]3CN3)CC1)C(=O)N1CCC[C@H](N1)C(=O)OCC(C)(C)C2 [Example 168]	100 to 1000 nM	10 to 100 nM	100 to 1000 nM	100 to 1000 nM	100 to 1000 nM	10 to 100 nM	10 to 100 nM	10 to 100 nM								
CCn1c(-c2cccnc2[C@H](C)OC)c2c3cc(ccc31)-c1csc(n1)C[C@H](NC(=O)[C@H](C(C)C)N(C)C(=O)N1CCN(C(=O)[C@H]3CN3)CC1)C(=O)N1CCC[C@H](N1)C(=O)OCC(C)(C)C2 [Example 169]	100 to 1000 nM	10 to 100 nM	100 to 1000 nM	10 to 100 nM	100 to 1000 nM	10 to 100 nM	10 to 100 nM	10 to 100 nM								
CCn1c(-c2cccnc2[C@H](C)OC)c2c3cc(ccc31)-c1cc(O)cc(c1)C[C@H](NC(=O)[C@H](C(C)C)N(C)C(=O)[C@@]1(F)CCN(C(=O)[C@H]3CN3)C1)C(=O)N1CCC[C@H](N1)C(=O)OCC(C)(C)C2 [Example 171]	10 to 100 nM	10 to 100 nM	10 to 100 nM	10 to 100 nM	10 to 100 nM	10 to 100 nM	< 10 nM	< 10 nM								
CCn1c(-c2cccnc2[C@H](C)OC)c2c3cc(ccc31)-c1cc(O)cc(c1)C[C@H](NC(=O)[C@H](C(C)C)N(C)C(=O)[C@@H]1CCN(C(=O)[C@@H]3CN3)C1)C(=O)N1CCC[C@H](N1)C(=O)OCC(C)(C)C2 [Example 172]	100 to 1000 nM	10 to 100 nM	10 to 100 nM	10 to 100 nM	10 to 100 nM	10 to 100 nM	10 to 100 nM	10 to 100 nM								
CCn1c(-c2cccnc2[C@H](C)OC)c2c3cc(ccc31)-c1cc(O)cc(c1)C[C@H](NC(=O)[C@H](C(C)C)N(C)C(=O)N1CCCN(C(=O)[C@@H]3CN3)CC1)C(=O)N1CCC[C@H](N1)C(=O)OCC(C)(C)C2 [Example 173]	10 to 100 nM	10 to 100 nM	10 to 100 nM	10 to 100 nM	10 to 100 nM	10 to 100 nM	10 to 100 nM	10 to 100 nM								
CCn1c(-c2cccnc2[C@H](C)OC)c2c3cc(ccc31)-c1cc(O)cc(c1)C[C@H](NC(=O)[C@H](C1CCCC1)N1CC[C@@]3(CCN(C(=O)[C@H]4CN4)C3)C1=O)C(=O)N1CCC[C@H](N1)C(=O)OCC(C)(C)C2 [Example 174]	100 to 1000 nM	10 to 100 nM	10 to 100 nM	10 to 100 nM	10 to 100 nM	10 to 100 nM	< 10 nM	< 10 nM								
CCn1c(-c2cccnc2[C@H](C)OC)c2c3cc(ccc31)-c1cc(O)cc(c1)C[C@H](NC(=O)[C@H](C1CCCC1)N1CC[C@]3(CCN(C(=O)[C@H]4CN4)C3)C1=O)C(=O)N1CCC[C@H](N1)C(=O)OCC(C)(C)C2 [Example 175, (2S)-2-((S)-7-((R)-aziridine-2-carbonyl)-1-oxo-2,7-diazaspiro[4.4]nonan-2-yl)-2-cyclopentyl-N-((6^3S,4S)-1^1-ethyl-2^5-hydroxy-1^2-(2-((S)-1-methoxyethyl)pyridin-3-yl)-10,10-dimethyl-5,7-dioxo-6^1,6^2,6^3,6^4,6^5,6^6-hexahydro-1^1H-8-oxa-1(5,3)-indola-6(1,3)-pyridazina-2(1,3)-benzenacycloundecaphane-4-yl)acetamide]	10 to 100 nM	10 to 100 nM	10 to 100 nM	10 to 100 nM	10 to 100 nM	10 to 100 nM	< 10 nM	< 10 nM								
CCn1c(-c2cccnc2[C@H](C)OC)c2c3cc(ccc31)-c1cc(O)cc(c1)C[C@H](NC(=O)[C@H](C(C)C)N(C)C(=O)N1CCN(C(=O)[C@H]3CN3)CC1)C(=O)N1CCC[C@H](N1)C(=O)OCC(C)(C)C2 [Example 177, 4-((R)-aziridine-2-carbonyl)-N-((2S)-1-(((6^3S,4S)-1^1-ethyl-2^5-hydroxy-1^2-(2-((S)-1-methoxyethyl)pyridin-3-yl)-10,10-dimethyl-5,7-dioxo-6^1,6^2,6^3,6^4,6^5,6^6-hexahydro-1^1H-8-oxa-1(5,3)-indola-6(1,3)-pyridazina-2(1,3)-benzenacycloundecaphane-4-yl)amino)-3-methyl-1-oxobutan-2-yl)-N-methylpiperazine-1-carboxamide]	100 to 1000 nM	10 to 100 nM	10 to 100 nM	10 to 100 nM	10 to 100 nM	10 to 100 nM	10 to 100 nM	10 to 100 nM								
